In ChEMBL document CHEMBL1128097, “Synthesis of Nh-acyl--aminoamides on rink resin: Inhibitors of the hematopoietic protein tyrosine phosphatase (HePTP)” (Bioorg Med Chem Lett, 1995):

Assay: In vitro inhibition of Hematopoietic protein-tyrosine phosphatase using p-nitrophenyl phosphate as substrate.
With `CCOC(=O)CNC(=O)C(NC(=O)c1ccc(/C=C/C(=O)O)cc1)c1ccccc1` (stereo not drawn) the IC50 was 9.6 µM. In the case of `CCC(NC(=O)c1ccc(/C=C/C(=O)O)cc1)C(=O)NCc1ccccc1` (stereo not drawn), the IC50 is reported as 15 µM. `CCCCCCC(NC(=O)c1ccc(/C=C/C(=O)O)cc1)C(=O)NCC(=O)OC` (stereo not drawn) showed an IC50 of 7.2 µM. `CCCCCCC(NC(=O)c1ccc(/C=C/C(=O)O)cc1)C(=O)NCc1ccccc1` (stereo not drawn) showed an IC50 of 6 µM. `O=C(O)/C=C/c1ccc(C(=O)NC(C(=O)NCC(=O)O)c2ccccc2)cc1` (stereo not drawn) showed an IC50 of 10.4 µM. Work on `O=C(O)/C=C/c1ccc(C(=O)NC(C(=O)NC2CCCCC2)c2ccccc2)cc1` (stereo not drawn) yielded an IC50 of 6.2 µM. Work on `CC(C)(C)NC(=O)C(NC(=O)c1ccc(/C=C/C(=O)O)cc1)c1ccccc1` (stereo not drawn) yielded an IC50 of 4 µM. Compound `CCCC(NC(=O)c1ccc(/C=C/C(=O)O)cc1)C(=O)NCc1ccccc1` (stereo not drawn) has an IC50 of 6.1 µM. In the case of `CCCCCCC(NC(=O)c1ccc(/C=C/C(=O)O)cc1)C(=O)NC(C)(C)C` (stereo not drawn), the IC50 is reported as 7.5 µM. In the case of `CCCCCCC(NC(=O)c1ccc(/C=C/C(=O)O)cc1)C(=O)NCCCC` (stereo not drawn), the IC50 is reported as 9 µM. `CCCCCCC(NC(=O)c1ccc(/C=C/C(=O)O)cc1)C(=O)NCC(=O)OCC` (stereo not drawn) gave an IC50 of 10 µM. In the case of `COC(=O)CNC(=O)C(NC(=O)c1ccc(/C=C/C(=O)O)cc1)c1ccccc1` (stereo not drawn), the IC50 is reported as 20.2 µM. In the case of `O=C(O)/C=C/c1ccc(C(=O)NC(C(=O)NCc2ccccc2)c2ccccc2)cc1` (stereo not drawn), the IC50 is reported as 3.9 µM. `CCCCCCC(NC(=O)c1ccc(/C=C/C(=O)O)cc1)C(=O)NC1CCCCC1` (stereo not drawn) showed an IC50 of 9 µM. For `CCCCCCC(NC(=O)c1ccc(/C=C/C(=O)O)cc1)C(=O)NCC(=O)O` (stereo not drawn), the IC50 was 7.5 µM. With `CC(NC(=O)c1ccc(/C=C/C(=O)O)cc1)C(=O)NCc1ccccc1` (stereo not drawn) the IC50 was 7.2 µM. In the case of `CCCCNC(=O)C(NC(=O)c1ccc(/C=C/C(=O)O)cc1)c1ccccc1` (stereo not drawn), the IC50 is reported as 6.7 µM. `CCCCC(NC(=O)c1ccc(/C=C/C(=O)O)cc1)C(=O)NCc1ccccc1` (stereo not drawn) showed an IC50 of 6.3 µM.
